From PMC5218480 (PLoS ONE, 2017)

System: MV-4-11 cells
Test: Gene expression microarray analysis (Affymetrix PrimeView) and GSEA
Assay type: cell-based, human
Set-up: RFU PODN (11730768_x_at) / Fold change /veh PODN (11730768_x_at) / RFU LINC00158 (11744669_a_at) / Fold change /veh LINC00158 (11744669_a_at) / RFU DUSP10 (11751237_a_at) / Fold change /veh DUSP10 (11751237_a_at) / RFU ID3 (11757404_x_at) / Fold change /veh ID3 (11757404_x_at) / RFU PLEKHG5 (11737974_s_at) / Fold change /veh PLEKHG5 (11737974_s_at) / RFU LRRC4B (11730491_at) / Fold change /veh LRRC4B (11730491_at) / RFU GIMAP4 (11747438_a_at) / Fold change /veh GIMAP4 (11747438_a_at) / RFU KRT8 (11758183_x_at) / Fold change /veh KRT8 (11758183_x_at) / RFU CNN1 (11734310_a_at) / Fold change /veh CNN1 (11734310_a_at) / RFU VPS37D (11726825_at) / Fold change /veh VPS37D (11726825_at) / RFU C10orf10 (11716522_x_at) / Fold change /veh C10orf10 (11716522_x_at) / RFU KIR2DL2 /// KIR2DL4 /// KIR2DL5A /// KIR2DL5B /// KIR2DS1 /// KIR2DS2 /// KIR2DS3 /// KIR2DS4 /// KIR3DL3 /// KIR3DL3 /// KIR3DS1 (11738374_at) / Fold change /veh KIR2DL2 /// KIR2DL4 /// KIR2DL5A /// KIR2DL5B /// KIR2DS1 /// KIR2DS2 /// KIR2DS3 /// KIR2DS4 /// KIR3DL3 /// KIR3DL3 /// KIR3DS1 (11738374_at) / RFU C1QL1 (11718748_at) / Fold change /veh C1QL1 (11718748_at) / RFU TMPRSS4 (11747572_a_at) / Fold change /veh TMPRSS4 (11747572_a_at) / RFU HAMP (11756126_x_at) / Fold change /veh HAMP (11756126_x_at) / RFU RNFT2 (11725882_a_at) / Fold change /veh RNFT2 (11725882_a_at) / RFU NR4A2 (11747474_a_at) / Fold change /veh NR4A2 (11747474_a_at) / RFU ABCC12 (11746883_a_at) / Fold change /veh ABCC12 (11746883_a_at) / RFU TMEM136 (11760407_x_at) / Fold change /veh TMEM136 (11760407_x_at) / RFU CLDN22 /// WWC2 (11732394_at) / Fold change /veh CLDN22 /// WWC2 (11732394_at) / RFU HLA-DPB1 (11760878_x_at) / Fold change /veh HLA-DPB1 (11760878_x_at) / RFU SPINT1 (11716480_a_at) / Fold change /veh SPINT1 (11716480_a_at) / RFU GAP43 (11754022_s_at) / Fold change /veh GAP43 (11754022_s_at) / RFU A4GNT (11735810_at) / Fold change /veh A4GNT (11735810_at) / RFU PRB3 (11715151_x_at) / Fold change /veh PRB3 (11715151_x_at) / RFU TUBB4B (11761932_at) / Fold change /veh TUBB4B (11761932_at) / RFU CAPN14 (11732068_a_at) / Fold change /veh CAPN14 (11732068_a_at) / RFU TMCC2 (11721928_a_at) / Fold change /veh TMCC2 (11721928_a_at) / RFU IRGQ (11745062_a_at) / Fold change /veh IRGQ (11745062_a_at) / RFU FAM174B (11720279_a_at) / Fold change /veh FAM174B (11720279_a_at) / RFU TMPRSS4 (11748680_a_at) / Fold change /veh TMPRSS4 (11748680_a_at) / RFU FAM212B (11763350_a_at) / Fold change /veh FAM212B (11763350_a_at) / RFU PLEKHG5 (11743358_a_at) / Fold change /veh PLEKHG5 (11743358_a_at) / RFU ZSCAN30 (11745921_a_at) / Fold change /veh ZSCAN30 (11745921_a_at) / RFU CMKLR1 (11741424_a_at) / Fold change /veh CMKLR1 (11741424_a_at) / RFU LOC101060620 /// MAPK8IP1 (11723275_at) / Fold change /veh LOC101060620 /// MAPK8IP1 (11723275_at) / RFU SPTSSB (11747773_x_at) / Fold change /veh SPTSSB (11747773_x_at) / RFU PRSS12 (11739890_at) / Fold change /veh PRSS12 (11739890_at) / RFU BIN1 (11741810_x_at) / Fold change /veh BIN1 (11741810_x_at) / RFU WNT11 (11732464_a_at) / Fold change /veh WNT11 (11732464_a_at) / RFU C10orf10 (11716521_a_at) / Fold change /veh C10orf10 (11716521_a_at) / RFU C5orf56 (11738089_at) / Fold change /veh C5orf56 (11738089_at) / RFU CYB561 (11721691_x_at) / Fold change /veh CYB561 (11721691_x_at) / RFU ANKRD19P (11752326_a_at) / Fold change /veh ANKRD19P (11752326_a_at) / RFU OR2T12 /// OR2T33 /// OR2T8 (11738714_s_at) / Fold change /veh OR2T12 /// OR2T33 /// OR2T8 (11738714_s_at) / RFU VCAN (11748164_a_at) / Fold change /veh VCAN (11748164_a_at) / RFU JSRP1 (11732532_at) / Fold change /veh JSRP1 (11732532_at) / RFU KRTAP10-11 (11738290_x_at) / Fold change /veh KRTAP10-11 (11738290_x_at) / RFU MYO3A (11730013_a_at) / Fold change /veh MYO3A (11730013_a_at) / RFU EBF3 (11725865_a_at) / Fold change /veh EBF3 (11725865_a_at) / RFU CAMK2N1 (11719241_x_at) / Fold change /veh CAMK2N1 (11719241_x_at) / RFU C5orf56 (11738088_a_at) / Fold change /veh C5orf56 (11738088_a_at) / RFU OLFML3 (11715873_a_at) / Fold change /veh OLFML3 (11715873_a_at) / RFU LOC100653217 /// NTM (11731650_a_at) / Fold change /veh LOC100653217 /// NTM (11731650_a_at) / RFU MAPK11 (11762145_a_at) / Fold change /veh MAPK11 (11762145_a_at) / RFU FIZ1 (11724087_x_at) / Fold change /veh FIZ1 (11724087_x_at) / RFU OASL (11726364_x_at) / Fold change /veh OASL (11726364_x_at) / RFU SOX15 (11748057_x_at) / Fold change /veh SOX15 (11748057_x_at) / RFU CD79A (11719716_a_at) / Fold change /veh CD79A (11719716_a_at) / RFU HIST1H1D (11736915_at) / Fold change /veh HIST1H1D (11736915_at) / RFU CASKIN2 (11723855_a_at) / Fold change /veh CASKIN2 (11723855_a_at) / RFU LOC730098 (11760151_x_at) / Fold change /veh LOC730098 (11760151_x_at) / RFU OR4N2 (11742367_at) / Fold change /veh OR4N2 (11742367_at) / RFU PRRT2 (11749266_a_at) / Fold change /veh PRRT2 (11749266_a_at) / RFU SNX32 (11753110_a_at) / Fold change /veh SNX32 (11753110_a_at) / RFU CDHR5 (11726645_a_at) / Fold change /veh CDHR5 (11726645_a_at) / RFU RCAN1 (11760418_a_at) / Fold change /veh RCAN1 (11760418_a_at) / RFU FAM167A (11723789_a_at) / Fold change /veh FAM167A (11723789_a_at) / RFU FAM26E (11764081_at) / Fold change /veh FAM26E (11764081_at) / RFU ISYNA1 (11749810_s_at) / Fold change /veh ISYNA1 (11749810_s_at) / RFU ACY1 (11761880_at) / Fold change /veh ACY1 (11761880_at) / RFU 11764098_at / Fold change /veh 11764098_at / RFU SAMD14 (11745864_x_at) / Fold change /veh SAMD14 (11745864_x_at) / RFU NPB (11741838_a_at) / Fold change /veh NPB (11741838_a_at) / RFU TMPRSS6 (11731388_a_at) / Fold change /veh TMPRSS6 (11731388_a_at) / RFU KRTAP10-2 (11738614_at) / Fold change /veh KRTAP10-2 (11738614_at) / RFU ARHGAP8 /// PRR5-ARHGAP8 (11727945_x_at) / Fold change /veh ARHGAP8 /// PRR5-ARHGAP8 (11727945_x_at) / RFU KRTAP5-7 /// NADSYN1 (11734609_at) / Fold change /veh KRTAP5-7 /// NADSYN1 (11734609_at) / RFU RASL12 (11751679_a_at) / Fold change /veh RASL12 (11751679_a_at) / RFU CDKN2B (11736163_a_at) / Fold change /veh CDKN2B (11736163_a_at) / RFU PRF1 (11729649_at) / Fold change /veh PRF1 (11729649_at) / RFU, ZNF638 /// ZNF638-IT1 / Fold change vs veh, ZNF638 /// ZNF638-IT1 / RFU, PANK3 / Fold change vs veh, PANK3 / RFU, SH3YL1 / Fold change vs veh, SH3YL1 / RFU, ZEB2 / Fold change vs veh, ZEB2 / RFU, NRIP1 / Fold change vs veh, NRIP1 / RFU, PTTG1IP / Fold change vs veh, PTTG1IP / RFU, CAPN2 / Fold change vs veh, CAPN2 / RFU, MED14 / Fold change vs veh, MED14 / RFU, SNORA58 / Fold change vs veh, SNORA58 / RFU, C1orf63 / Fold change vs veh, C1orf63 / RFU, LRRFIP1 / Fold change vs veh, LRRFIP1 / RFU, NDUFAF7 / Fold change vs veh, NDUFAF7 / RFU, SLC12A2 / Fold change vs veh, SLC12A2 / RFU, IBTK / Fold change vs veh, IBTK / RFU, ESF1 / Fold change vs veh, ESF1 / Fold change vs veh, TMEM50B / RFU, TAOK1 / Fold change vs veh, TAOK1 / RFU, ACBD3 / Fold change vs veh, ACBD3 / RFU, TMA16 / Fold change vs veh, TMA16 / RFU, RWDD3 / Fold change vs veh, RWDD3 / RFU, BCAT1 / Fold change vs veh, BCAT1 / RFU, EDEM3 / Fold change vs veh, EDEM3 / RFU, TMEM33 / Fold change vs veh, TMEM33 / RFU, WDR75 / Fold change vs veh, WDR75 / RFU, AHCTF1 / Fold change vs veh, AHCTF1 / RFU, TFRC / Fold change vs veh, TFRC / RFU, ZDHHC17 / Fold change vs veh, ZDHHC17 / RFU, NOM1 / Fold change vs veh, NOM1 / RFU, ARL8B / Fold change vs veh, ARL8B / RFU, ZBTB11 / Fold change vs veh, ZBTB11 / RFU, TAMM41 / Fold change vs veh, TAMM41 / RFU, KIAA1704 /// LOC100996395 / Fold change vs veh, KIAA1704 /// LOC100996395 / RFU, ING1 / Fold change vs veh, ING1 / RFU, TRMT61B / Fold change vs veh, TRMT61B / RFU, FUBP3 / Fold change vs veh, FUBP3 / RFU, TP53 / Fold change vs veh, TP53 / RFU, TNKS2 / Fold change vs veh, TNKS2 / RFU, ZFP14 / Fold change vs veh, ZFP14 / RFU, ACTR2 / Fold change vs veh, ACTR2 / RFU, PPP3R1 / Fold change vs veh, PPP3R1 / RFU, PIK3R1 / Fold change vs veh, PIK3R1 / RFU, HNRNPA1 / Fold change vs veh, HNRNPA1 / RFU, RNF170 / Fold change vs veh, RNF170 / RFU, ZNF28 / Fold change vs veh, ZNF28 / RFU, RNGTT / Fold change vs veh, RNGTT / RFU, OGT / Fold change vs veh, OGT / RFU, BRD1 / Fold change vs veh, BRD1 / RFU, MARS / Fold change vs veh, MARS / RFU, ZNF655 / Fold change vs veh, ZNF655 / RFU, FAHD1 / Fold change vs veh, FAHD1 / RFU, BDP1 / Fold change vs veh, BDP1 / RFU, LRRCC1 / Fold change vs veh, LRRCC1 / RFU, ARID1A / Fold change vs veh, ARID1A / RFU, ZNF146 / Fold change vs veh, ZNF146 / RFU, ZNF330 / Fold change vs veh, ZNF330 / RFU, GPN3 / Fold change vs veh, GPN3 / RFU, C9orf123 / Fold change vs veh, C9orf123 / RFU, N4BP2L2 / Fold change vs veh, N4BP2L2 / RFU, ARFIP1 / Fold change vs veh, ARFIP1 / RFU, FAM179B / Fold change vs veh, FAM179B / RFU, BCL10 / Fold change vs veh, BCL10 / RFU, UHRF1BP1L / Fold change vs veh, UHRF1BP1L / RFU, BET1 / Fold change vs veh, BET1 / RFU, CNOT2 / Fold change vs veh, CNOT2 / RFU, ZNF268 / Fold change vs veh, ZNF268 / Fold change vs veh, ZNF507 / RFU, DGCR2 / Fold change vs veh, DGCR2 / RFU, WDSUB1 / Fold change vs veh, WDSUB1 / Fold change vs veh, HSP90B1 /// MIR3652 / RFU, ADSS / Fold change vs veh, ADSS / RFU, GK / Fold change vs veh, GK / RFU, ZNF148 / Fold change vs veh, ZNF148 / RFU, TAF9 / Fold change vs veh, TAF9 / RFU, SLC1A5 / Fold change vs veh, SLC1A5 / RFU, SLMO2 / Fold change vs veh, SLMO2 / RFU, ABCC4 / Fold change vs veh, ABCC4 / RFU, LOC101060439 /// RAP1B / Fold change vs veh, LOC101060439 /// RAP1B / RFU, RFX7 / Fold change vs veh, RFX7 / RFU, GTPBP10 / Fold change vs veh, GTPBP10 / RFU, CNEP1R1 / Fold change vs veh, CNEP1R1 / RFU, BIVM-ERCC5 /// ERCC5 / Fold change vs veh, BIVM-ERCC5 /// ERCC5 / RFU, ILF3 / Fold change vs veh, ILF3 / RFU 11762660_at / Fold change /veh 11762660_at / RFU VCAN (11757783_s_at) / Fold change /veh VCAN (11757783_s_at) / RFU DDX43 (11728927_at) / Fold change /veh DDX43 (11728927_at) / RFU KRT8 (11758188_x_at) / Fold change /veh KRT8 (11758188_x_at) / RFU NKD1 (11759106_at) / Fold change /veh NKD1 (11759106_at) / RFU SRD5A1 (11742802_a_at) / Fold change /veh SRD5A1 (11742802_a_at) / RFU TPSAB1 /// TPSB2 (11721975_s_at) / Fold change /veh TPSAB1 /// TPSB2 (11721975_s_at) / RFU GSTM3 (11746129_a_at) / Fold change /veh GSTM3 (11746129_a_at) / RFU IL23R (11737362_x_at) / Fold change /veh IL23R (11737362_x_at) / RFU TMEM51 (11727254_a_at) / Fold change /veh TMEM51 (11727254_a_at) / RFU PIWIL2 (11732686_x_at) / Fold change /veh PIWIL2 (11732686_x_at) / RFU ORM1 (11744905_x_at) / Fold change /veh ORM1 (11744905_x_at) / RFU CCDC152 (11743942_at) / Fold change /veh CCDC152 (11743942_at) / RFU ECM1 (11717891_a_at) / Fold change /veh ECM1 (11717891_a_at) / RFU IL23R (11748794_a_at) / Fold change /veh IL23R (11748794_a_at) / RFU TNFAIP8L3 (11732012_x_at) / Fold change /veh TNFAIP8L3 (11732012_x_at) / RFU MBOAT4 (11741988_at) / Fold change /veh MBOAT4 (11741988_at) / RFU 11764193_at / Fold change /veh 11764193_at / RFU TMEM53 (11763286_at) / Fold change /veh TMEM53 (11763286_at) / RFU MAGEB2 (11727129_at) / Fold change /veh MAGEB2 (11727129_at) / RFU TMEM200A (11744735_a_at) / Fold change /veh TMEM200A (11744735_a_at) / RFU CCDC152 (11751479_a_at) / Fold change /veh CCDC152 (11751479_a_at) / RFU FAM211A (11726209_a_at) / Fold change /veh FAM211A (11726209_a_at) / RFU RGS16 (11746705_a_at) / Fold change /veh RGS16 (11746705_a_at) / RFU VCAN (11755009_s_at) / Fold change /veh VCAN (11755009_s_at) / RFU RHOB (11743442_s_at) / Fold change /veh RHOB (11743442_s_at) / RFU RGS16 (11720943_a_at) / Fold change /veh RGS16 (11720943_a_at) / RFU RGS16 (11720944_at) / Fold change /veh RGS16 (11720944_at) / RFU, VPS4B / Fold change vs veh, VPS4B / RFU, CREB1 / Fold change vs veh, CREB1 / RFU, DNAJC13 / Fold change vs veh, DNAJC13 / RFU, GNAQ / Fold change vs veh, GNAQ / RFU, CDK5R1 / Fold change vs veh, CDK5R1 / RFU, ZRANB3 / Fold change vs veh, ZRANB3 / RFU, CUL4A / Fold change vs veh, CUL4A / RFU, CCNY / Fold change vs veh, CCNY / RFU, UFL1 / Fold change vs veh, UFL1 / RFU, COG3 / Fold change vs veh, COG3 / RFU, DIAPH2 / Fold change vs veh, DIAPH2 / RFU, SKA2 / Fold change vs veh, SKA2 / RFU, AFF3 / Fold change vs veh, AFF3 / RFU, LMF1 / Fold change vs veh, LMF1 / RFU, IPO11 / Fold change vs veh, IPO11 / RFU, DFFB / Fold change vs veh, DFFB / RFU, FOXP1 / Fold change vs veh, FOXP1 / RFU, CARD8 / Fold change vs veh, CARD8 / RFU, STRN3 / Fold change vs veh, STRN3 / RFU, ADK / Fold change vs veh, ADK / RFU, RASSF2 / Fold change vs veh, RASSF2 / RFU, WIPF1 / Fold change vs veh, WIPF1 / RFU, LARP1B / Fold change vs veh, LARP1B / RFU, RASA1 / Fold change vs veh, RASA1 / RFU, RB1 / Fold change vs veh, RB1 / RFU, PPFIA1 / Fold change vs veh, PPFIA1 / RFU, MAT2A / Fold change vs veh, MAT2A / RFU, CCT5 / Fold change vs veh, CCT5 / RFU, WDR92 / Fold change vs veh, WDR92 / RFU, CUX1 / Fold change vs veh, CUX1 / RFU, TTC7A / Fold change vs veh, TTC7A / RFU, TMEM135 / Fold change vs veh, TMEM135 / RFU, DEPTOR / Fold change vs veh, DEPTOR / RFU, CPM / Fold change vs veh, CPM / RFU, DNAJB6 / Fold change vs veh, DNAJB6 / RFU, CACNA2D3 / Fold change vs veh, CACNA2D3 / RFU, DTX4 / Fold change vs veh, DTX4 / RFU, TFCP2 / Fold change vs veh, TFCP2 / RFU, GMCL1 /// GMCL1P1 / Fold change vs veh, GMCL1 /// GMCL1P1 / RFU, AEBP2 / Fold change vs veh, AEBP2 / RFU, SNHG1 /// SNORD22 /// SNORD25 /// SNORD26 /// SNORD27 /// SNORD28 /// SNORD29 /// SNORD31 / Fold change vs veh, SNHG1 /// SNORD22 /// SNORD25 /// SNORD26 /// SNORD27 /// SNORD28 /// SNORD29 /// SNORD31 / Fold change (Aza/veh), C12orf56 (ProbeSet 11735607_a_at) / Fold change (ACY-1035/veh), C12orf56 (ProbeSet 11735607_a_at) / Fold change (Aza/veh), FGFR1OP (ProbeSet 11751329_s_at) / Fold change (ACY-1035/veh), FGFR1OP (ProbeSet 11751329_s_at) / Fold change (Aza/veh), VPS36 (ProbeSet 11739960_a_at) / Fold change (ACY-1035/veh), VPS36 (ProbeSet 11739960_a_at) / RFU SYPL1 (11715823_x_at) / Fold change /veh SYPL1 (11715823_x_at) / RFU IGFBP7 (11715501_s_at) / Fold change /veh IGFBP7 (11715501_s_at) / RFU REEP3 (11722064_at) / Fold change /veh REEP3 (11722064_at) / RFU IGLL1 (11728026_x_at) / Fold change /veh IGLL1 (11728026_x_at): dose or concentration left out as unconfirmed
Conditions: ProbeSet 11743929_at; LIST B

Nc1ccc(-c2cccs2)cc1NC(=O)c1ccc2c(c1)cc(C1CC1)n2CCN1CCOCC1 [ACY-1035]
RFU, UHRF1BP1L: 242.75 RFU
